#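 Test compounds were applied to cells in 96-well plates for 48 hours at 5 doses. GI50: concentration for 50% inhibition of growth.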 The source made the active and inactive calls. No stated cut-off is given here; in the data, active = GI50 up to about 1.1 µM and inactive = higher.
# Columns and labels:
# Test in all cases: NCI anticancer screen, dose series, 48 h
# HCC 2998 = tested on: HCC 2998
# MCF7 = tested on: MCF7
# NCI-H226 = tested on: NCI-H226
# HT-29 = tested on: HT-29
# OVCAR-8 = tested on: OVCAR-8
# SN12C = tested on: SN12C
# SNB-19 = tested on: SNB-19
# HCT-116 = tested on: HCT-116
# T47D = tested on: T47D
# PC-3 = tested on: PC-3
# Malme-3M = tested on: Malme-3M
# MDA-MB-435 = tested on: MDA-MB-435
# CAKI-1 = tested on: CAKI-1
# NCI-H522 = tested on: NCI-H522
# UACC-257 = tested on: UACC-257
# 786-0 = tested on: 786-0
# A549 = tested on: A549
# MDA-MB-231 = tested on: MDA-MB-231
# BT-549 = tested on: BT-549
# OVCAR-3 = tested on: OVCAR-3
# COLO 205 = tested on: COLO 205
# MOLT-4 = tested on: MOLT-4
# SNB-75 = tested on: SNB-75
# LOX IMVI = tested on: LOX IMVI
# EKVX = tested on: EKVX
# DU-145 = tested on: DU-145
# MDA-N = tested on: MDA-N
# HCT-15 = tested on: HCT-15
# KM12 = tested on: KM12
# ACHN = tested on: ACHN
# NCI/ADR-RES = tested on: NCI/ADR-RES
# IGROV-1 = tested on: IGROV-1
# SF-539 = tested on: SF-539
# U-251 = tested on: U-251
# M14 = tested on: M14
# Hs-578T = tested on: Hs-578T
# SF-295 = tested on: SF-295
# SK-MEL-28 = tested on: SK-MEL-28
# SK-MEL-2 = tested on: SK-MEL-2
# NCI-H23 = tested on: NCI-H23
# SK-OV-3 = tested on: SK-OV-3
# HL-60 = tested on: HL-60
# OVCAR-4 = tested on: OVCAR-4
# CCRF-CEM = tested on: CCRF-CEM
# UACC-62 = tested on: UACC-62
# K562 = tested on: K562
# SF-268 = tested on: SF-268
# SW-620 = tested on: SW-620
# A498 = tested on: A498
# SR = tested on: SR
# RXF 393 = tested on: RXF 393
# HOP-62 = tested on: HOP-62
# HOP-92 = tested on: HOP-92
# SK-MEL-5 = tested on: SK-MEL-5
# NCI-H460 = tested on: NCI-H460
# TK-10 = tested on: TK-10
# OVCAR-5 = tested on: OVCAR-5
# RPMI-8226 = tested on: RPMI-8226
# UO-31 = tested on: UO-31
smiles,measurement,setting,value
O=[N+]([O-])/C(Cl)=C(\NCCO)C(Cl)=C(Cl)Cl,GI50,HCC 2998,> 100 µM (inactive)
same,GI50,MCF7,52 µM (inactive)
same,GI50,NCI-H226,> 100 µM (inactive)
same,GI50,HT-29,57 µM (inactive)
same,GI50,OVCAR-8,52.8 µM (inactive)
same,GI50,SN12C,43 µM (inactive)
same,GI50,SNB-19,> 100 µM (inactive)
same,GI50,HCT-116,45.2 µM (inactive)
same,GI50,T47D,57.7 µM (inactive)
same,GI50,PC-3,87.3 µM (inactive)
same,GI50,Malme-3M,32.5 µM (inactive)
same,GI50,MDA-MB-435,55.8 µM (inactive)
same,GI50,CAKI-1,> 86.7 µM (inactive)
same,GI50,NCI-H522,21.7 µM (inactive)
same,GI50,UACC-257,> 100 µM (inactive)
same,GI50,786-0,45 µM (inactive)
same,GI50,A549,> 100 µM (inactive)
same,GI50,MDA-MB-231,> 64.9 µM (inactive)
same,GI50,BT-549,> 79.8 µM (inactive)
same,GI50,OVCAR-3,60.4 µM (inactive)
same,GI50,COLO 205,27.5 µM (inactive)
same,GI50,MOLT-4,20.7 µM (inactive)
same,GI50,SNB-75,> 80.2 µM (inactive)
same,GI50,LOX IMVI,70 µM (inactive)
same,GI50,EKVX,> 100 µM (inactive)
same,GI50,DU-145,> 100 µM (inactive)
same,GI50,MDA-N,55.5 µM (inactive)
same,GI50,HCT-15,30.8 µM
same,GI50,KM12,> 89.1 µM (inactive)
same,GI50,ACHN,89.5 µM (inactive)
same,GI50,NCI/ADR-RES,61.1 µM (inactive)
same,GI50,IGROV-1,> 100 µM (inactive)
same,GI50,SF-539,> 100 µM (inactive)
same,GI50,U-251,> 93.3 µM (inactive)
same,GI50,M14,38.8 µM (inactive)
same,GI50,Hs-578T,> 65.5 µM (inactive)
same,GI50,SF-295,> 100 µM (inactive)
same,GI50,SK-MEL-28,> 85.7 µM (inactive)
same,GI50,SK-MEL-2,> 100 µM (inactive)
same,GI50,NCI-H23,72.1 µM (inactive)
same,GI50,SK-OV-3,> 100 µM (inactive)
same,GI50,HL-60,4.35 µM (inactive)
same,GI50,OVCAR-4,59.4 µM (inactive)
same,GI50,CCRF-CEM,16.9 µM (inactive)
same,GI50,UACC-62,45.2 µM (inactive)
same,GI50,K562,8.2 µM (inactive)
same,GI50,SF-268,87.9 µM (inactive)
same,GI50,SW-620,41.3 µM (inactive)
same,GI50,A498,> 100 µM (inactive)
same,GI50,SR,20.5 µM (inactive)
same,GI50,RXF 393,56.1 µM (inactive)
same,GI50,HOP-62,> 100 µM (inactive)
same,GI50,HOP-92,> 84.5 µM (inactive)
same,GI50,SK-MEL-5,> 96.4 µM (inactive)
same,GI50,NCI-H460,> 100 µM (inactive)
same,GI50,TK-10,> 89.3 µM (inactive)
same,GI50,OVCAR-5,> 100 µM (inactive)
same,GI50,RPMI-8226,16.1 µM (inactive)
same,GI50,UO-31,> 74.5 µM (inactive)
CC(C)(C)OC(=O)CCCCCNC(=O)CCCCCNC(=O)CCC(CN(CC(=O)OCc1ccccc1)CC(=O)OCc1ccccc1)N(CC(=O)OCc1ccccc1)CC(=O)OCc1ccccc1 (stereo not drawn),GI50,HCC 2998,> 100 µM (inactive)
same,GI50,MCF7,> 100 µM (inactive)
same,GI50,NCI-H226,> 100 µM (inactive)
same,GI50,HT-29,> 100 µM (inactive)
same,GI50,OVCAR-8,> 100 µM (inactive)
same,GI50,SN12C,> 100 µM (inactive)
same,GI50,SNB-19,> 100 µM (inactive)
same,GI50,HCT-116,> 100 µM (inactive)
same,GI50,T47D,> 100 µM (inactive)
same,GI50,PC-3,> 100 µM (inactive)
same,GI50,Malme-3M,> 100 µM (inactive)
same,GI50,MDA-MB-435,> 100 µM (inactive)
same,GI50,CAKI-1,43.8 µM (inactive)
same,GI50,NCI-H522,> 100 µM (inactive)
same,GI50,UACC-257,> 100 µM (inactive)
same,GI50,786-0,> 100 µM (inactive)
same,GI50,A549,> 100 µM (inactive)
same,GI50,MDA-MB-231,> 100 µM (inactive)
same,GI50,BT-549,> 100 µM (inactive)
same,GI50,OVCAR-3,> 100 µM (inactive)
same,GI50,COLO 205,> 100 µM (inactive)
same,GI50,MOLT-4,20.1 µM (inactive)
same,GI50,SNB-75,20.2 µM (inactive)
same,GI50,LOX IMVI,> 100 µM (inactive)
same,GI50,EKVX,> 100 µM (inactive)
same,GI50,DU-145,> 100 µM (inactive)
same,GI50,MDA-N,> 100 µM (inactive)
same,GI50,HCT-15,> 100 µM
same,GI50,KM12,> 100 µM (inactive)
same,GI50,ACHN,> 100 µM (inactive)
same,GI50,NCI/ADR-RES,> 100 µM (inactive)
same,GI50,IGROV-1,> 100 µM (inactive)
same,GI50,SF-539,> 100 µM (inactive)
same,GI50,U-251,> 100 µM (inactive)
same,GI50,M14,> 100 µM (inactive)
same,GI50,Hs-578T,> 100 µM (inactive)
same,GI50,SF-295,> 100 µM (inactive)
same,GI50,SK-MEL-28,> 100 µM (inactive)
same,GI50,SK-MEL-2,> 100 µM (inactive)
same,GI50,NCI-H23,68.1 µM (inactive)
same,GI50,SK-OV-3,> 100 µM (inactive)
same,GI50,HL-60,61.1 µM (inactive)
same,GI50,OVCAR-4,> 100 µM (inactive)
same,GI50,CCRF-CEM,31.4 µM (inactive)
same,GI50,UACC-62,> 100 µM (inactive)
same,GI50,K562,25.2 µM (inactive)
same,GI50,SF-268,> 100 µM (inactive)
same,GI50,SW-620,> 100 µM (inactive)
same,GI50,A498,> 100 µM (inactive)
same,GI50,SR,20.5 µM (inactive)
same,GI50,RXF 393,> 100 µM (inactive)
same,GI50,HOP-62,> 100 µM (inactive)
same,GI50,HOP-92,32.9 µM (inactive)
same,GI50,SK-MEL-5,> 100 µM (inactive)
same,GI50,NCI-H460,14.6 µM (inactive)
same,GI50,TK-10,> 100 µM (inactive)
same,GI50,OVCAR-5,> 100 µM (inactive)
same,GI50,RPMI-8226,11.8 µM (inactive)
same,GI50,UO-31,71.1 µM (inactive)

# Reference: ChEMBL document CHEMBL1201862, “PubChem BioAssay data set” (2004)
